In data set [1] the test system is Staphylococcus aureus ATCC 6538 resistant to bacitracin. The data set can be described thus: Minimum inhibitory concentration, resistant strain (Table II). Type of data set: cell-based. The settings on record: S. aureus ATCC 6538 resistant to bacitracin. From the text: (§1) Lipiarmycin is also active against strains which are resistant to other antibiotics which are widely used in chemotherapeutic practice. As a representative example, in the following table the minimum inhibitory concentrations (M.I.C.), γ/ml., of lipiarmycin against Staphylococcus aureus strains resistant to several antibiotics are reported.

Data set [2] has as its system Staphylococcus aureus ATCC 6538 resistant to cephaloridine. The data set is described as above. Type of data set: cell-based.
Text: as §1

For data set [3], the system named is Staphylococcus aureus ATCC 6538 resistant to chloramphenicol. Described as above. Type of data set: cell-based.
Text: as §1

Data set [4] deals with Staphylococcus aureus ATCC 6538 resistant to erythromycin. The data set is described as above. Type of data set: cell-based.
Text: as §1

Data set [5] concerns Staphylococcus aureus ATCC 6538 resistant to novobiocin. The data set is described as above. Type of data set: cell-based.
Text: as §1

For data set [6], the system named is Staphylococcus aureus ATCC 6538 resistant to oleandomycin. Described as above. The format is cell-based.
Text: as §1

For data set [7], the system named is Staphylococcus aureus ATCC 6538 resistant to penicillin. The data set is described as above. The format is cell-based.
Text: as §1

Data set [8] deals with Staphylococcus aureus ATCC 6538 resistant to streptomycin. The data set is described as above. Type of data set: cell-based.
Text: as §1

Data set [9] concerns Staphylococcus aureus ATCC 6538 resistant to tetracycline. The description is as above. Type of data set: cell-based.
Text: as §1

For data set [10] the following is noted: pH 7.
Data set [11] relates to Mycobacterium tub. H37Rv ATCC 9360. Briefly: Minimal inhibitory concentration. Type of data set: cell-based. From the text:
(§2) The antibiotic substance of the invention is active against bacteria, and in particular against the following microorganisms at the indicated concentrations.

Data set [12] deals with Staphylococcus aureus Tour. The data set can be described thus: Minimal inhibitory concentration. Type of data set: cell-based.
Text: as §2

The test system of data set [13] is Streptococcus hemolyticus C203. The data set can be described thus: Minimal inhibitory concentration. Type of data set: cell-based.
Text: as §2

Data set [14] concerns Mycoplasma gallisepticum H 21 C.Z.B. Briefly: Minimal inhibitory concentration. The format is cell-based.
Text: as §2

In data set [15] the test system is Staphylococcus aureus ATCC 6538. Briefly: Minimal inhibitory concentration. Type of data set: cell-based.
Text: as §2

Data set [16] relates to Streptococcus mutans ATCC 25175. Briefly: Minimal inhibitory concentration. Type of data set: cell-based.
Text: as §2

Data set [17] deals with Diplococcus pneumoniae UC 41. Briefly: Minimal inhibitory concentration. The format is cell-based.
Text: as §2

The test system of the next data set is mice. Briefly: Toxicity, LD50 i.p. in mice.
Data set [18] is classed as physicochemical. The settings on record: methyl cellosolve. The source says:
An ionizable function is spectrophotometrically evidenced with pKa (in methyl cellosolve): 6.8

Data set [19] concerns Staphylococcus aureus ATCC 6538 resistant to streptothricin. The data set can be described thus: Minimum inhibitory concentration, resistant strain (Table II). To be noted: S. aureus ATCC 6538 resistant to streptothricin. Type of data set: cell-based.
Text: as §1

For data set [20], the system named is Staphylococcus aureus ATCC 6538 resistant to neomycin. Described as above. The format is cell-based. To be noted: S. aureus ATCC 6538 resistant to neomycin.
Text: as §1

Where [21] appears, read: Staphylococcus aureus, ATCC6538, read-out: M.I.C. of other antibiotics.

In general, pKa refers to the negative logarithm of the acid dissociation constant. A higher pKa goes with a group that holds its proton tightly.

Converted amounts (≈) assume the structure as drawn. Residues, ends and D or L forms follow the SMILES beside them.

For the molecule `CC[C@H](C)[C@H](N)C1=N[C@H](C(=O)N[C@@H](CC(C)C)C(=O)N[C@H](CCC(=O)O)C(=O)N[C@H](C(=O)N[C@H]2CCCCNC(=O)[C@H](CC(N)=O)NC(=O)[C@@H](CC(=O)O)NC(=O)[C@H](Cc3cnc[nH]3)NC(=O)[C@@H](Cc3ccccc3)NC(=O)[C@H]([C@@H](C)CC)NC(=O)[C@@H](CCCN)NC2=O)[C@@H](C)CC)CS1` [bacitracin, reference compound] (HELM PEPTIDE1{[CC[C@H](C)[C@H](N)C1=N[C@H](C(=O)[*:2])CS1].L.[dE].I.K.[NCCC[C@@H](N[*:1])C(=O)[*:2]].I.[dF].H.[dD].N}$PEPTIDE1,PEPTIDE1,5:R3-11:R2$$$V2.0), the “M.I.C. of other antibiotics” value in data set [1] was above 100 µg/mL.
For `O=C(Cc1cccs1)N[C@@H]1C(=O)N2C(C(=O)[O-])=C(C[n+]3ccccc3)CS[C@H]12` [cephaloridine, reference compound], the MIC in data set [2] (setting [21]) is above 100 µg/mL.
Turning to `O=C(N[C@H](CO)[C@H](O)c1ccc([N+](=O)[O-])cc1)C(Cl)Cl` [chloramphenicol, reference compound], the MIC in data set [3] (setting [21]) is above 100 µg/mL.
`CC[C@H]1OC(=O)[C@H](C)[C@@H](O[C@H]2C[C@@](C)(OC)[C@@H](O)[C@H](C)O2)[C@H](C)[C@@H](O[C@@H]2O[C@H](C)C[C@H](N(C)C)[C@H]2O)[C@](C)(O)C[C@@H](C)C(=O)[C@H](C)[C@@H](O)[C@]1(C)O` [erythromycin, reference compound]: in [4] (setting [21]), the MIC is above 100 µg/mL.
Regarding `CO[C@@H]1[C@@H](OC(N)=O)[C@@H](O)[C@H](Oc2ccc3c(O)c(NC(=O)c4ccc(O)c(CC=C(C)C)c4)c(=O)oc3c2C)OC1(C)C` [novobiocin, reference compound], the MIC in [5] (setting [21]) was above 100 µg/mL.
`CO[C@H]1C[C@H](O[C@H]2[C@H](C)[C@@H](O[C@@H]3O[C@H](C)C[C@H](N(C)C)[C@H]3O)[C@@H](C)C[C@@]3(CO3)C(=O)[C@H](C)[C@@H](O)[C@@H](C)[C@@H](C)OC(=O)[C@@H]2C)O[C@@H](C)[C@@H]1O` [oleandomycin, reference compound]: the MIC in [6] (setting [21]) amounted to 50 µg/mL (≈ 72.7 µM).
`CC1(C)S[C@@H]2[C@H](NC(=O)Cc3ccccc3)C(=O)N2[C@H]1C(=O)O` [penicillin, reference compound]: in data set [7] (setting [21]), the MIC was above 100 µg/mL.
Turning to `[H]/N=C(/N)N[C@H]1[C@H](O)[C@@H](O)[C@H](O[C@@H]2O[C@@H](C)[C@](O)(C=O)[C@H]2O[C@@H]2O[C@@H](CO)[C@H](O)[C@@H](O)[C@@H]2NC)[C@@H](N/C(N)=N\[H])[C@@H]1O` [streptomycin, reference compound], in [8] (setting [21]), the MIC was above 100 µg/mL.
`CN(C)[C@@H]1C(O)=C(C(N)=O)C(=O)[C@@]2(O)C(O)=C3C(=O)c4c(O)cccc4[C@@](C)(O)[C@H]3C[C@@H]12` [tetracycline, reference compound]: the MIC in [9] (setting [21]) was above 100 µg/mL.
On to lipiarmycin, for which, in [10], the Solubility result is “Sparingly soluble to insoluble”. Moreover, the “MINIMAL INHIBITORY CONCENTRATION” value came out at 50 µg/mL in data set [11]; 10 µg/mL in [12] (Staphylococcus aureus Tour with 10 percent bovine serum); 2 µg/mL in [12] (Staphylococcus aureus Tour, without serum); 10 µg/mL in data set [13]; 50 µg/mL in data set [14]; 2 µg/mL in data set [15]. Besides, the results for the “MINIMAL INHIBITORY CONCENTRATION” value in [16] and in [17] were 0.5 µg/mL and 50 µg/mL, respectively. Also, the LD50 result in the data set with mice is given as “about 500 mg./kg”. Moreover, in data set [18], the pKa stood at 6.8. In addition, the M.I.C. of lipiarmycin in [7] (S. aureus ATCC 6538 resistant to penicillin) was found to be 2 µg/mL; in [2] (S. aureus ATCC 6538 resistant to cephaloridine), 5 µg/mL; in [19] it was 5 µg/mL; in [8] (S. aureus ATCC 6538 resistant to streptomycin), 5 µg/mL; in [20] it was 2 µg/mL; in data set [3] (S. aureus ATCC 6538 resistant to chloramphenicol) it was 2 µg/mL. The M.I.C. of lipiarmycin in data set [1] was 5 µg/mL; in data set [5] (S. aureus ATCC 6538 resistant to novobiocin), 2 µg/mL; in data set [9] (S. aureus ATCC 6538 resistant to tetracycline) it was 5 µg/mL; in data set [6] (S. aureus ATCC 6538 resistant to oleandomycin), 5 µg/mL; in [4] (S. aureus ATCC 6538 resistant to erythromycin) it was 5 µg/mL.
Regarding neomycin [reference compound], the “M.I.C. of other antibiotics” value in data set [20] was above 100 µg/mL.
Regarding streptothricin [reference compound], the “M.I.C. of other antibiotics” value in [19] was above 100 µg/mL.

These data come from US3978211A, “Lipiarmycin and its preparation” (Gruppo Lepetit S.p.A., priority 1973, dated 1976).
